# Results from patent US8710069B2, “Opioid-nornicotine codrugs combinations for pain management” (University of Kentucky Research Foundation, priority 2008, dated 2014).
# Values joined by “and” are separate entries in the source; they are usually repeats but may differ in a detail not shown here. Identical values can stand only once.
# Columns and labels:
# [1] = following peripheral administration of nicotine; cited from earlier work
# Rat [2] = assay type: in vivo; details: IT nornicotine perchlorate 10 ug/10 ul, Day 1
# Description: • Experiment: Tail-Flick—Al at 40%; cut-off 10 sec. • Measurements will be taken at baseline (2×), 5, 10, 15, 30, 45, 60, 90, 120 minutes after drug administration. • Drug Treatment: • […] will be administered in a 10 ul vol., followed by a 10 ul saline flush. • Both R- & S-nornicotine will be tested. • Preparation of Solution: • 10 ug in 10 ul vol. • 100 ug in 100 ul vol. • […]. • 1 mg in 1 ml=10 mg/10 ml vol. • Drug Administration Schedule: […]
# Rat [3] = experiment: Tail-Flick test after intrathecal (IT) injection, AI 40%, cut-off 10 sec; assay type: in vivo; details: IT nornicotine perchlorate 10 ug/10 ul alone, Day 1, one rat per line, cutoff 10 sec; for Tail-Flick 5 min.: 5 min after injection; for Tail-Flick 10 min.: 10 min after injection; for Tail-Flick 15 min.: 15 min after injection; for Tail-Flick 30 min.: 30 min after injection; for Tail-Flick 45 min.: 45 min after injection; for Tail-Flick 60 min.: 60 min after injection
# Description: • Experiment: Tail-Flick—Al at 40%; cut-off 10 sec. • Measurements will be taken at baseline (2×), 5, 10, 15, 30, 45, 60, 90, 120 minutes after drug administration. • Drug Treatment: • […] will be administered in a 10 ul vol., followed by a 10 ul saline flush. • Both R- & S-nornicotine will be tested. • Preparation of Solution: • 10 ug in 10 ul vol. • 100 ug in 100 ul vol. • […]. • 1 mg in 1 ml=10 mg/10 ml vol. • Drug Administration Schedule:
# IT—Narnicotine Perchlorate—Day 1 Tail-Flick—IITC Life Science Model 33 Series 8 • Al=40% Cutoff=10 sec. […]
# [4] = following repeated nicotine dosing; cited from earlier work
Structure (SMILES),residence in the rat's brain [1] [min],Behavior: side effects (Rat [2]),Tail-Flick 5 min. (Rat [3]),Tail-Flick 10 min. (Rat [3]),Tail-Flick 15 min. (Rat [3]),Tail-Flick 30 min. (Rat [3]),Tail-Flick 45 min. (Rat [3]),Tail-Flick 60 min. (Rat [3]),accumulation in the brain compared to nicotine [4],"residence in the rat's brain, times longer than nicotine [1]"
CN1CCCC1c1cccnc1 (stereo not drawn) [nicotine],52,–,–,–,–,–,–,–,–,–
"c1cncc([C@@H]2CCCN2)c1 [S, S-nornicotine]",–,no obvious side effects,9.06 s and 8.01 s and 4.40 s and 8.17 s and 3.84 s,6.39 s and 5.47 s and 5.60 s and 6.21 s and 3.21 s,4.58 s and 4.33 s and 6.08 s and 3.29 s and 3.56 s,6.14 s and 3.31 s and 4.85 s and 3.47 s and 4.05 s,3.95 s and 3.57 s and 2.23 s and 4.60 s and 4.07 s,4.11 sec and 3.35 sec (2×) and 4.27 sec and 4.26 sec,–,–
"c1cncc([C@H]2CCCN2)c1 [R, R-nornicotine]",–,no noticeable side effects,3.04 s and 5.00 s and 5.47 s and 2.16 s and 6.67 s,2.23 s and 4.08 s and 2.53 s and 1.80 s and 5.95 s,3.16 sec and 4.34 sec and 2.82 sec (2×) and 2.86 sec,2.55 s and 3.13 s and 3.90 s and 2.73 s and 4.14 s,3.13 s and 2.87 s and 4.26 s and 2.40 s and 4.95 s,2.19 s and 2.75 s and 3.12 s and 2.63 s and 3.93 s,–,–
c1cncc([C@@H]2CCCN2)c1 [nornicotine],166,–,–,–,–,–,–,–,about 4 fold,about 3 times
